“And” between values parts separate entries of the source, which are not always exact repeats. Equal values may be shown once. Read-outs that look alike come from different tables or passages of the source.
Assays:
[1] = target: T1, human MMP-9 (amino acids 107-446) (Homo sapiens, UniProt P14780); test: MMP dose response assay for determining IC50, MMP-9; format: biochemical; conditions: for IC50: recombinant enzyme, fluorescent-quench substrate 100 nM, read-out: MMP-9; for inhibition at 10 µM: read-out: MMP-9 % inhibition at 10 μM
T1 construct: human MMP-9 (amino acids 107-446); made in house
T1 sequence (P14780 107-446): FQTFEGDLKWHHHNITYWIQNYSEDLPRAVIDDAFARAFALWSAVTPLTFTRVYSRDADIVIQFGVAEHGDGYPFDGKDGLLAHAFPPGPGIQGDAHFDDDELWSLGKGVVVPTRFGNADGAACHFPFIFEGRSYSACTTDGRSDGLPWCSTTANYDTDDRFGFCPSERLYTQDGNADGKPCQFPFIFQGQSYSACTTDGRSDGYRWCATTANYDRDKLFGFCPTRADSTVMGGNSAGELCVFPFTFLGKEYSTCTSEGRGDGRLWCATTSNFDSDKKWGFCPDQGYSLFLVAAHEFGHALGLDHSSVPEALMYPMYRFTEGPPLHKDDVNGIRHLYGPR
Method: (§1) MMP Dose Response Assay for Determining IC50
(§2) The following method was used for determining IC50 values of different inhibitor compounds against multiple MMP enzymes. Frozen stocks of recombinantly produced MMPs were prepared in assay buffer (50 mM HEPES pH 7.4, 10 mM CaCl2, 0.05% Brij-35). […] Enzyme concentrations in the assay were determined empirically and set such that proteolytic activity was maintained in a linear range over the time-course of the experiment. […] Each concentration for each test compound was tested in triplicate. MMP enzymes were equilibrated with compounds for 1 hour at room temperature, then a fluorescent-quench substrate (Acetyl-Cys(Eu)-Pro-Leu-Gly-Leu-Lys-(QSY7)-Ala-Arg-amide) was added to a final concentration of 100 nM. […] Data was analyzed by first calculating average background value from wells that contained only substrate, and this value was subtracted from the entire plate. The 100%, or maximum value, was determined by averaging control wells that contained enzyme, substrate and DMSO. For each well, the percent of control was calculated by dividing the well value by the average DMSO value obtained above.

[2] = target: T2, human MMP-2 (amino acids 1-660) (Homo sapiens, UniProt P08253); test: MMP dose response assay for determining IC50, MMP-2; format: biochemical; conditions: for inhibition at 10 µM: read-out: MMP-2 % inhibition at 10 μM
T2 construct: human MMP-2 (amino acids 1-660); made in house
T2 sequence (P08253 110-660): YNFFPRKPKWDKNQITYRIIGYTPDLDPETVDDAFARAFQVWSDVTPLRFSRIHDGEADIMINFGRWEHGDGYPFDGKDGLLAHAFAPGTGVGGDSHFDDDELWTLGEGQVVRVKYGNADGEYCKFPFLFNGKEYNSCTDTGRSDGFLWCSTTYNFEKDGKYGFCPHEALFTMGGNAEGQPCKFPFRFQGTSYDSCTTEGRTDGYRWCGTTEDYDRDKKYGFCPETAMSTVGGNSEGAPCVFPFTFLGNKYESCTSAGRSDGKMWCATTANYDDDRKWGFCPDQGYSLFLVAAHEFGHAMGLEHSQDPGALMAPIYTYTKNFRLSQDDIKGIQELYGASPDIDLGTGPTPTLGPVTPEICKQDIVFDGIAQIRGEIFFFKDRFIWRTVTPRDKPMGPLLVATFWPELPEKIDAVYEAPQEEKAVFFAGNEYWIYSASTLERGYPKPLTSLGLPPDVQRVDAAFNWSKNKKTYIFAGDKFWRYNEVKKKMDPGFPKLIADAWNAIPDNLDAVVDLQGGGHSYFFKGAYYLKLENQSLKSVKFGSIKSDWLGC
Method: as §1, §2

[3] = recombinant enzyme, fluorescent-quench substrate 100 nM, read-out: MMP-2

SMILES | IC50 [1] | IC50 [2, 3] | inhibition at 10 µM [1] | inhibition at 10 µM [2] | IC50 ([2]; MMP-2 (nM))
CC(C)CN(O)C(=O)[C@H](CN(c1ccc(Oc2ccc(C(F)(F)F)cc2)cc1)S(C)(=O)=O)N1CCOCC1 [Example 5, N-Hydroxy,N-(2-methylpropyl)(2S)-2-(morpholin-4-yl)-3-{N-[4-(4-trifluoromethylphenoxy)phenyl],N-methanesulfonylamino}propionamide] | 87.9 nM | 261 nM | – | – | –
Cc1ccc(Oc2ccc(N(C[C@@H](O)C(=O)NO)S(C)(=O)=O)cc2)cc1 [Example 7, N-Hydroxy (2R)-2-hydroxy-3-{N-[4-(4-methylphenoxy)phenyl],N-methanesulfonylamino}propionamide] | 20.6 nM and 3.13 nM | 81.7 nM and 52 nM | – | – | –
Cc1ccc(Oc2ccc(N(C[C@H](O)C(=O)NO)S(C)(=O)=O)cc2)cc1 [Example 8, N-Hydroxy (2S)-2-hydroxy-3-{N-[4-(4-methylphenoxy)phenyl],N-methanesulfonylamino}propionamide] | 10.5 nM and 11.1 nM and 10.1 nM and 3.37 nM and 4.69 nM and 7.57 nM | 88.5 nM and 67.8 nM and 98.2 nM and 65 nM and 51.9 nM and 71.5 nM | – | – | –
CS(=O)(=O)N(C[C@@H](O)C(=O)NO)c1ccc(-c2ccccc2)cc1 [Example 9, N-Hydroxy (2R)-2-hydroxy-3-[N-(4-phenyl)phenyl,N-methanesulfonylamino]propionamide] | – | – | 78.7% | 83.6% | –
CS(=O)(=O)N(C[C@H](O)C(=O)NO)c1ccc(-c2ccccc2)cc1 [Example 10, N-Hydroxy (2S)-2-hydroxy-3-[N-(4-phenyl)phenyl,N-methanesulfonylamino]propionamide] | – | – | 79% | 87% | –
COc1ccc(N[C@@H](CN(c2ccc(Oc3ccc(C)cc3)cc2)S(C)(=O)=O)C(=O)NO)cc1 [Example 48, N-Hydroxy (2S)-2-(4-methoxyphenyl)amino-3-{N-[4-(4-methylphenoxy)phenyl],N-methanesulfonylamino}propionamide] | 0.69 nM | 18.5 nM | – | – | –
Cc1ccc(Sc2ccc(N(C[C@H](O)C(=O)NO)S(C)(=O)=O)cc2)cc1 [Example 49, N-Hydroxy (2S)-2-hydroxy-3-{N-[4-(4-methylthiophenoxy)phenyl],N-methanesulfonylamino}propionamide] | 62.8 nM and 44.5 nM | 274 nM and 321 nM | – | – | –
Cc1ccc(Oc2ccc(N(C[C@H](Nc3ccc(OC(F)(F)F)cc3)C(=O)NO)S(C)(=O)=O)cc2)cc1 [Example 50, N-Hydroxy (2S)-3-{N-[4-(4-methylphenoxy)phenyl],N-methanesulfonylamino}-2-(4-trifluoromethoxyphenyl)aminopropionamide] | 73.6 nM | 877 nM | – | – | –
COc1cccc(N[C@@H](CN(c2ccc(Oc3ccc(C)cc3)cc2)S(C)(=O)=O)C(=O)NO)c1 [Example 51, N-Hydroxy (2S)-2-(3-methoxyphenyl)amino-3-{N-[4-(4-methylphenoxy)phenyl],N-methanesulfonylamino}propionamide] | 0.62 nM | 26.8 nM | – | – | –
Cc1ccc(Oc2ccc(N(C[C@H](Nc3cccc(OC(F)(F)F)c3)C(=O)NO)S(C)(=O)=O)cc2)cc1 [Example 52, N-Hydroxy (2S)-3-{N-[4-(4-methylphenoxy)phenyl],N-methanesulfonylamino}-2-(3-trifluoromethoxyphenyl)aminopropionamide] | 165 nM | 1080 nM | – | – | –
CS(=O)(=O)N(C[C@H](O)C(=O)NO)c1ccc(Oc2ccc(C(F)(F)F)cn2)cc1 [Example 53, N-Hydroxy (2S)-2-hydroxy-3-{N-{4-[(5-trifluoromethylpyridin-2-yl)oxy]phenyl},N-methanesulfonylamino}propionamide] | 472 nM | – | – | – | –
CS(=O)(=O)N(C[C@H](O)C(=O)NO)c1ccc(Oc2ccc(C(F)(F)F)cc2)cc1 [Example 54, N-Hydroxy (2S)-2-hydroxy-3-{N-[4-(4-trifluoromethylphenoxy)phenyl],N-methanesulfonylamino}propionamide] | 17.2 nM and 10.7 nM | 175 nM and 102 nM | – | – | –
CS(=O)(=O)N(C[C@H](Nc1cccc(F)c1)C(=O)NO)c1ccc(Oc2ccc(C(F)(F)F)cn2)cc1 [Example 55, N-Hydroxy (2S)-2-(3-fluorophenyl)amino-3-{N-{4-[(5-trifluoromethylpyridin-2-yl)oxy]phenyl},N-methanesulfonylamino}propionamide] | 410 nM | 1560 nM | – | – | –
CC(C)N[C@@H](CN(c1ccc(Oc2ccc(C(F)(F)F)cn2)cc1)S(C)(=O)=O)C(=O)NO [Example 56, N-Hydroxy (2S)-2-(2-propyl)amino-3-{N-{4-[(5-trifluoromethylpyridin-2-yl)oxyl]phenyl},N-methanesulfonylamino}propionamide] | 144 nM | 396 nM | – | – | –
CS(=O)(=O)N(C[C@@H](C(=O)NO)N1CCOCC1)c1ccc(Oc2ccc(C(F)(F)F)cn2)cc1 [Example 57, N-Hydroxy (2S)-2-(morpholin-4-yl)-3-{N-{4-[(5-trifluoromethylpyridin-2-yl)oxy]phenyl},N-methanesulfonylamino}propionamide] | 227 nM | 406 nM | – | – | –
CC(C)N[C@@H](CN(c1ccc(Oc2ccc(C(F)(F)F)cc2)cc1)S(C)(=O)=O)C(=O)NO [Example 58, N-Hydroxy (2S)-2-(2-propyl)amino-3-{N-[4-(4-trifluoromethylphenoxy)phenyl],N-methanesulfonylamino}propionamide] | 2.37 nM | 9.16 nM | – | – | –
CS(=O)(=O)N(C[C@H](Nc1cccc(F)c1)C(=O)NO)c1ccc(Oc2ccc(C(F)(F)F)cc2)cc1 [Example 59, N-Hydroxy (2S)-2-(3-fluorophenyl)amino-3-{N-[4-(4-trifluoromethylphenoxy)phenyl],N-methanesulfonylamino}propionamide] | 31.9 nM | 466 nM | – | – | –
COc1ccc(C#Cc2ccc(N(C[C@H](O)C(=O)NO)S(C)(=O)=O)cc2)cc1 [Example 61, N-Hydroxy (2S)-2-hydroxy-3-{N-[4-(4-methoxyphenylacetylene)phenyl],N-methanesulfonylamino}propionamide] | 91 nM | – | – | – | 31.6 nM
CS(=O)(=O)N(C[C@@H](C(=O)NO)N1CCC(O)CC1)c1ccc(Oc2ccc(Cl)cc2)cc1 [Example 88, N-Hydroxy (2S)-3-{N-[4-(4-chlorophenoxy)phenyl],N-methanesulfonylamino}-2-(4-hydroxypiperidin-1-yl)propionamide] | 0.9 nM | 3.13 nM | – | – | –
CS(=O)(=O)N(C[C@@H](C(=O)NO)N1CCOCC1)c1ccc(Oc2ccc(Cl)cc2)cc1 [Example 89, N-Hydroxy (2S)-2-(morpholin-4-yl)-3-{N-[4-(4-chlorophenoxy)phenyl],N-methanesulfonylamino}propionamide] | 2 nM | 5.52 nM | – | – | –
CS(=O)(=O)N(C[C@H](O)C(=O)NO)c1ccc(Sc2ccc(F)cc2)cc1 [Example 90, N-Hydroxy (2S)-2-hydroxy-3-{N-[4-(4-fluorothiophenoxy)phenyl],N-methanesulfonylamino}propionamide] | 64.4 nM and 39.2 nM | 312 nM and 254 nM | – | – | –
CC(C)N1CCN([C@@H](CN(c2ccc(Oc3ccc(Cl)cc3)cc2)S(C)(=O)=O)C(=O)NO)CC1 [Example 91, N-Hydroxy (2S)-3-{N-[4-(4-chlorophenoxy)phenyl],N-methanesulfonylamino}-2-[4-(2-propyl)piperazin-1-yl]Propionamide] | 3.11 nM | 8.77 nM | – | – | –
CN1CCN([C@@H](CN(c2ccc(Oc3ccc(Cl)cc3)cc2)S(C)(=O)=O)C(=O)NO)CC1 [Example 92, N-Hydroxy (2S)-3-{N-[4-(4-chlorophenoxy)phenyl],N-methanesulfonylamino}-2-(4-methylpiperazin-1-yl)propionamide] | 2.39 nM | 6.5 nM | – | – | –
CS(=O)(=O)N(C[C@H](NC(=O)C1CCOCC1)C(=O)NO)c1ccc(Oc2ccc(C(F)(F)F)cc2)cc1 [Example 93, N-Hydroxy (2S)-2-[(tetrahydropyran-4-yl)carbonylamino]-3-{N-[4-(4-trifluoromethylphenoxy)phenyl],N-methanesulfonylamino}propionamide] | 54.1 nM | 836 nM | – | – | –
CC(C)CC#Cc1ccc(N(C[C@@H](C(=O)NO)N2CCOCC2)S(C)(=O)=O)cc1 [Example 94, N-Hydroxy (2S)-3-{N-[4-(4-methylpentyn-1-yl)phenyl],N-methanesulfonylamino}-2-(morpholin-4-yl)propionamide] | 113 nM | 106 nM | – | – | –

— patent publication US20080085893A1, “MATRIX METALLOPROTEASE INHIBITORS” (priority 2006, published 2008)
